This passage reports Activity, IC50 and selectivity ratio results from ChEMBL document CHEMBL4265952, “One-pot, multi-component synthesis and structure-activity relationships of peptoid-based histone deacetylase (HDAC) inhibitors targeting malaria parasites” (Eur J Med Chem, 2018).

pIC50: −log10 of the molar value. Bounds are passed on as bounds.

Series [1] deals with Plasmodium falciparum. Kind of series: Gametocytocidal activity against transgenic GFP-fused Plasmodium falciparum NF54 late stage gametocytes at 40 uM after 72 hrs by Mitotracker Red CMH2XRos staining based imaging method relative to control. The format is functional.
For series [2], the target named is Histone deacetylase 1 (Homo sapiens, UniProt Q13547). Kind of series: Inhibition of recombinant full length human C-terminal His/FLAG tagged HDAC1 expressed in baculovirus infected Sf9 insect cells using ZMAL as substrate measured after 90 mins by fluorescence assay.
Histone deacetylase 1, sequence (Q13547 whole entry): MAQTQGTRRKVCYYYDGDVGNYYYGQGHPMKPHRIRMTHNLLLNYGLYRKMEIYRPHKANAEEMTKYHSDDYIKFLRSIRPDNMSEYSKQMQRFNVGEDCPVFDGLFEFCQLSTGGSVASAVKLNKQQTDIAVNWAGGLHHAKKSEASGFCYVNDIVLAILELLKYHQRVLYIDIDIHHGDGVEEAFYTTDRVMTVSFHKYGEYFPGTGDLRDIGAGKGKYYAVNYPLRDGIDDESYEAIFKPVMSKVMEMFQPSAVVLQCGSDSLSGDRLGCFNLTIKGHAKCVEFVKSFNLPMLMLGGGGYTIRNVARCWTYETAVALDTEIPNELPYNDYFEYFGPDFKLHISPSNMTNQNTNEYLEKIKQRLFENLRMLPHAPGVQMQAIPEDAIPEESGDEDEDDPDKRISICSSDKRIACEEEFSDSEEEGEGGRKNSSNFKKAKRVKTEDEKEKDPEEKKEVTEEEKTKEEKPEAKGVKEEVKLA
The target in series [3] is T1, Protein deacetylase HDAC6 (Homo sapiens, UniProt Q9UBN7).
T1 sequence (Q9UBN7 whole entry): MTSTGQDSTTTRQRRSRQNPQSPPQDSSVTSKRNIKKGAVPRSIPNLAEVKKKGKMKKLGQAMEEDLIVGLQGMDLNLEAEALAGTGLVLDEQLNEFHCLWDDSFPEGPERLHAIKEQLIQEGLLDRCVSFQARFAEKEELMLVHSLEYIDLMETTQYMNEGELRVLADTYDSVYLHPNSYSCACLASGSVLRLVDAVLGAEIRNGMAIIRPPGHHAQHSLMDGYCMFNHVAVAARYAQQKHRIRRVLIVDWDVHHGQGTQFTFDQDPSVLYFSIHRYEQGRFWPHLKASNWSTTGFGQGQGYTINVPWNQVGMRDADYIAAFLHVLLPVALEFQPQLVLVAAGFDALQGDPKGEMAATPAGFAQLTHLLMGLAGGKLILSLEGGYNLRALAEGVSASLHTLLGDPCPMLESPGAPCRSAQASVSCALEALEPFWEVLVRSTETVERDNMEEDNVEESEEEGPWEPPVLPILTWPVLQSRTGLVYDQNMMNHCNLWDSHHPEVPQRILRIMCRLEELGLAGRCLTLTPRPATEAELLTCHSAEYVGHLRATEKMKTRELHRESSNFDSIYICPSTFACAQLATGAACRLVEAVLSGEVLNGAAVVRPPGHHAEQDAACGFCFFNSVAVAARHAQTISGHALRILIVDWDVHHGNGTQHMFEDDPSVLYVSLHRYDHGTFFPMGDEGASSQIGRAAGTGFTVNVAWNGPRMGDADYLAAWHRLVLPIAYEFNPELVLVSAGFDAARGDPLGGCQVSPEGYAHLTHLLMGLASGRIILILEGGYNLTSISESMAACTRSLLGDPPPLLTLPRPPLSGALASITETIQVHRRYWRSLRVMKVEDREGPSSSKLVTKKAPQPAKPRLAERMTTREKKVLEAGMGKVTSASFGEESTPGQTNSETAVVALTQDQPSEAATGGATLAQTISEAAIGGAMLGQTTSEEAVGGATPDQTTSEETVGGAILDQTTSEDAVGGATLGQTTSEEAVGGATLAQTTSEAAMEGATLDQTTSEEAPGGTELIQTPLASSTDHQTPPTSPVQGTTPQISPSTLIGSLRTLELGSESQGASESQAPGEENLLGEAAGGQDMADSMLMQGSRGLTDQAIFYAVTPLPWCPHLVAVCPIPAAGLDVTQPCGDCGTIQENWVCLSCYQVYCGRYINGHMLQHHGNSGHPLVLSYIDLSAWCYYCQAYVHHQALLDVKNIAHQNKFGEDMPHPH
Put plainly: Inhibition of recombinant full length human N-terminal GST-tagged HDAC6 expressed in baculovirus infected Sf9 insect cells using ZMAL as substrate measured after 90 mins by fluorescence assay.

Series [4] has as its system Plasmodium falciparum. Kind of series: Antiplasmodial activity against Plasmodium falciparum.
Series [5] has as its system Plasmodium falciparum. Put plainly: Gametocytocidal activity against synchronized Plasmodium falciparum NF54 mature stage 5 gametocytes after 48 hrs by ATP bioluminescence assay. The note with it: NF54, 48 h. It counts as functional, organism-based.
Series [6] in a line: in vitro. The settings on record: human.
Description: Selectivity index, ratio of IC50 for human NFF cells to IC50 for drug-sensitive asexual ring stage Plasmodium falciparum 3D7 infected in human erythrocytes
Series [7] deals with NFF. Kind of series: cells. The settings on record: Homo sapiens.
Description: Cytotoxicity against human NFF cells
Series [8] concerns Plasmodium falciparum. Put plainly: microbe, parasite or virus in culture. The note with it: 3D7, 3 h.
Description: Antiplasmodial activity against drug-sensitive asexual ring stage Plasmodium falciparum 3D7 infected in human erythrocytes by [3H]-hypoxanthine incorporation assay
A short description of series [9]: in vitro. The settings on record: human. The source holds these as a separate data set.
Description: Selectivity index, ratio of IC50 for human NFF cells to IC50 for multidrug-resistant asexual ring stage Plasmodium falciparum Dd2 infected in human erythrocytes
Series [10] relates to Plasmodium falciparum. Put plainly: microbe, parasite or virus in culture. The settings on record: Dd2, 3 h.
Description: Antiplasmodial activity against multidrug-resistant asexual ring stage Plasmodium falciparum Dd2 infected in human erythrocytes by [3H]-hypoxanthine incorporation assay
The nature of series [11]: Selectivity index, ratio of IC50 for human HepG2A16 cells to IC50 for exo-erythrocytic stage of GFP-Luc-fused Plasmodium berghei ANKA infected in human HepG2 cells.
Series [12] has as its system Plasmodium berghei. Kind of series: Antiplasmodial activity against exo-erythrocytic stage of GFP-Luc-fused Plasmodium berghei ANKA infected in human HepG2 cells after 48 hrs by bioluminescence assay. The note with it: HepG2, 48 h.
A short description of series [13]: Cytotoxicity against human HepG2A16 cells expressing GFP-fused CD81 after 48 hrs by bioluminescence assay. The settings on record: HepG2A16, 48 h.
In series [14] the test system is NFF. It counts as ADME, cell-based. The note with it: Homo sapiens, 72 h.
Series [15] deals with Plasmodium falciparum. The format is functional, organism-based. The settings on record: 3D7.
The subject of series [16] is HEK293. Put plainly: Cytotoxicity against HEK293 cells after 48 hrs by resazurin dye based assay. It counts as ADME, cell-based. The settings on record: Homo sapiens, HEK293, 48 h.
Series [17] has as its system Plasmodium falciparum. The format is functional, organism-based. The settings on record: Dd2.
Series [18] concerns Plasmodium falciparum. Put plainly: Gametocytocidal activity against transgenic GFP-fused Plasmodium falciparum NF54 early stage gametocytes after 72 hrs by Mitotracker Red CMH2XRos staining based imaging method. The format is functional, organism-based. The note with it: NF54, 72 h.
Series [19] deals with Plasmodium falciparum. Put plainly: Gametocytocidal activity against transgenic GFP-fused Plasmodium falciparum NF54 late stage gametocytes after 72 hrs by Mitotracker Red CMH2XRos staining based imaging method. It counts as functional, organism-based. The settings on record: NF54, 72 h.

Turning to `Cc1ccc(C(=O)N(CC(=O)NC(C)(C)C)Cc2ccc(C(=O)NO)cc2)cc1C`, the Activity in series [1] is recorded as 92%. In addition, the pIC50 was 6.37 in series [2] and 7.24 in series [3].
On to `CC(/C=C/C(=O)NO)=C\[C@@H](C)C(=O)c1ccc(N(C)C)cc1` [TRICHOSTATIN], for which the pIC50 in series [4] is 7.96 to 8.10.
Regarding `CCCCNC(=O)CN(Cc1ccc(C(=O)NO)cc1)C(=O)c1ccc(N(C)C)cc1`, the pIC50 in series [2] is 7.40; in series [3] it was 7.46.
As for `CC(C)c1ccc(C(=O)N(CC(=O)NC2CCCCC2)Cc2ccc(C(=O)NO)cc2)cc1`, the pIC50 in [2] is 7.07; in series [3], 7.19.
Turning to `CN(C)c1ccc2nc3ccc(N(C)C)cc3[s+]c2c1` [METHYLENE BLUE ANHYDROUS], the pIC50 in series [5] is 6.32.
For `Cc1ccc(NC(=O)CN(Cc2ccc(C(=O)NO)cc2)C(=O)c2ccc(N(C)C)cc2)cc1`, in series [2], the pIC50 is 7.10.
As to `Cc1ccc(NC(=O)CN(Cc2ccc(C(=O)NO)cc2)C(=O)c2cccc3ccccc23)cc1`, the selectivity ratio in series [6] and in [9] was 256 to 303 throughout. Besides, the values for the negative-log IC50 (pIC50) in series [7], in series [8] and in [10] were < 5.00, 7.41 and 7.48, respectively.
As to `O=C1C(O)=C([C@H]2CC[C@H](c3ccc(Cl)cc3)CC2)C(=O)c2ccccc21` [ATOVAQUONE], the selectivity ratio in [11] was > 35000. The figures for the pIC50 in series [12] and in series [13] were 10.85 and < 6.30, respectively.
`CC[C@H](C)[C@H](NC(=O)[C@H]([C@@H](C)CC)N(C)C(C)=O)C(=O)N[C@H](C(=O)N[C@@H](CC(C)C)C(=O)[C@@]1(C)CO1)[C@@H](C)O` [EPOXOMYCIN] had a negative-log IC50 (pIC50) in series [5] of 8.15.
As to `O=C(CN(Cc1ccc(C(=O)NO)cc1)C(=O)c1cccc2ccccc12)NC1CCCCC1`, the pIC50 in series [2] is 6.26.
Regarding `Cc1ccc(C(=O)N(CC(=O)NC2CCCCC2)Cc2ccc(C(=O)NO)cc2)cc1C`, the pIC50 in [2] is 6.52.
On to `O=C(/C=C/c1cccc(S(=O)(=O)Nc2ccccc2)c1)NO` [BELINOSTAT], for which the pIC50 in series [14] is 5.63 to 5.85; in series [15], 6.89 to 7.22; in [16] it was 5.63 to 5.85; in series [17], 6.89 to 7.22.
As to `COc1ccc2nc3cc(Cl)ccc3c(Nc3cc(CN4CCCC4)c(O)c(CN4CCCC4)c3)c2n1` [PYRONARIDINE], the pIC50 in [18] is 7.54; in series [19] it was 5.77.
For `Cc1ccc(NC(=O)CN(Cc2ccc(C(=O)NO)cc2)C(=O)c2cc(C)cc(C)c2)cc1`, the pIC50 in series [12] is 5.26; in series [7], < 5.00; in [10], 7.57; in series [18] it was 5.12; in series [19] it was 5.14; in series [13] it was 4.67. Moreover, in series [5], the pIC50 was 5.00.
Turning to `Cc1[nH]c2ccccc2c1CCNCc1ccc(/C=C/C(=O)NO)cc1` [PANOBINOSTAT], the pIC50 in series [14] is 6.74 to 7.15; in series [15], 7.52 to 8.00; in [16] it was 6.74 to 7.15; in series [17], 7.52 to 8.00.
